Laboratory results as given in patent publication US4406908A, “Tetrazolylcoumarin derivatives and antiallergic compositions containing the same” (Kakenyaku Kako Co., Ltd., priority 1980, dated 1983).

What was measured:
[1] = system: passive cutaneous anaphylaxis (PCA) mediated by homocytotropic antibodies (HTA); assay: antiallergic activity: passive cutaneous anaphylaxis (PCA) mediated by homocytotropic antibodies (HTA) in rats; type: in vivo, rat (Wister); conditions: Rattus norvegicus, given orally 30 minutes before antigen challenge, minimum dose that decreased statistically significantly the amount of leaked dye comparing with control, 72 hr. PCA, read-out: MED
Method: With respect to the 3-(1H-tetrazol-5-yl)-coumarin derivatives obtained in Examples 1 to 12, there was tested antiallergic activity concerning passive cutaneous anaphylaxis (PCA) mediated by homocytotropic antibodies (HTA) in rats.
2,4-Dinitrophenyl-coupled ascaris extract (DNP-As) used as antigen, was prepared according to the methods of Strejan et al [cf. J. Immunol., Vol. 98, 893(1967)] and Eisen [cf. J. Amer. Chem. Soc., Vol. 75, 4593(1953)]. Antisera containing HTA were prepared in rats according to the method of Tada and Okumura [cf, J. Immunol., Vol. 106, 1002(1971)] as follows:
Wister rats weighing 180 to 200 g. were splenectomized and several days later immunized by injecting into all four footpads a total of 1 mg. of DNP-As mixed with 10^10 Bordetella pertussis. After 5 days, 0.5 mg. of DNP-As alone was injected subcutaneously into the back of rats. Eight days after the first immunization, blood was collected by aortic puncture under ether anaesthesea and antisera obtained by these procedures were pooled and stored at -80° C.
The titer of the pooled autiserum was determined in rats by the 72 hr. PCA which method was described in the following item (ii), i.e. the highest dilution of antiserum producing a diameter of approximately 5 mm. was usually 1:500.
Normal wister rats weighing 140 to 160 g. were sensitized passively by injection intradermal on the shaved back skin 0.05 ml. of the diluted antisera (1:30). After 72 hours, the animals were injected intravenously 1 ml. of physiological salt solution containing 2 mg. DNP-As and 2.5 mg. Evans' blue.
The present compounds to be tested were given orally 30 minutes before antigen challenge. The animals were exsanguinated 30 minutes after challenge with the antigens and the skins were exfoliated. The intensities of PCA were evaluated by measuring the amount of leaked dye. The amount of dye leaked as a result of PCA was extracted according to the method of Harada et al [cf. Jpn.

[2] = acute toxicity in mice; conditions: mouse, in vivo, po, orally, suspended in 10% gum arabic solution, 6 days observation, method of Litchfield-Wilcoxon
Method: With respect to the 3-(1H-tetrazol-5-yl)-coumarin derivatives obtained in Examples 1 to 12, there was tested acute toxicity in mice.
After normal female Slc: ddy mice 4 weeks old were purchased and fed preliminarily in this lavoratory for a week, these mice weighing 25-27 g. were used in the test. The present compounds to be tested, were suspended in a 10% gum arabic solution and administered orally […]. body weight to mice. Each dose level was given to a group of ten animals and the survivors were kept under observation for 6 days. The numbers of dead animals were counted and the LD50 values in mg./kg. body weight were calculated by the method of Litchfield-Wilcoxon.

SMILES | minimal effective dose [1] | LD50 at 144 h [2]
CC(C)OCCOc1cccc2cc(-c3nn[nH]n3)c(=O)oc12 [Ex. 5] | 6.25 mg/kg | 1500 mg/kg
O=c1oc2c(OCCCO)cccc2cc1-c1nnn[nH]1 [Ex. 1, 8-(3-Hydroxypropoxy)-3-(1H-tetrazol-5-yl)coumarin] |  | > 2000 mg/kg
CCOCCOCCOc1cccc2cc(-c3nn[nH]n3)c(=O)oc12 [Ex. 11, 8-(3,6-Dioxaoctyloxy)-3-(1-H-tetrazol-5-yl)-coumarin] | 1.56 mg/kg | > 2000 mg/kg
CCCCOCCOc1cccc2cc(-c3nnn[nH]3)c(=O)oc12 [Ex. 6, 8-(3-Oxaheptyloxy)-3(1H-tetrazol-5-yl)coumarin] | 6.25 mg/kg | > 2000 mg/kg
CCOCCOc1cccc2cc(-c3nnn[nH]3)c(=O)oc12 [Ex. 3, 8-(3-Oxapentyloxy)-3-(1H-tetrazol-5-yl)coumarin] | 0.39 mg/kg | 1500 mg/kg
COCCOc1cccc2cc(-c3nnn[nH]3)c(=O)oc12 [Ex. 2, 8-(3-Oxabutoxy)-3-(1H-tetrazol-5-yl)coumarin] | 1.56 mg/kg | 1500 to 2000 mg/kg
CCCOCCOc1cccc2cc(-c3nnn[nH]3)c(=O)oc12 [Ex. 4, 8-(3-Oxahexyloxy)-3-(1H-tetrazol-5-yl)coumarin] | 1.56 mg/kg | 1500 to 2000 mg/kg
CCOCCCOc1cccc2cc(-c3nnn[nH]3)c(=O)oc12 [Ex. 8, 8-(4-Oxahexyloxy)-3-(1H-tetrazol-5-yl)coumarin] | 6.25 mg/kg | > 2000 mg/kg
CCOCCCCOc1cccc2cc(-c3nnn[nH]3)c(=O)oc12 [Ex. 9, 8-(5-Oxaheptyloxy)-3-(1H-tetrazol-5-yl)coumarin] | 0.39 mg/kg | > 2000 mg/kg
O=c1oc2c(OCCOc3ccccc3)cccc2cc1-c1nnn[nH]1 [Ex. 12, 8-(2-Phenoxyethyloxy)-3-(1H-tetrazol-5-yl)-coumarin] | 1.56 mg/kg | > 2000 mg/kg
CC(C)COCCOc1cccc2cc(-c3nnn[nH]3)c(=O)oc12 [Ex. 7, 8-(5-Methyl-3-oxahexyloxy)-3-(1H-tetrazol-5-yl)coumarin] | 6.25 mg/kg | > 2000 mg/kg
C=CCOCCOc1cccc2cc(-c3nnn[nH]3)c(=O)oc12 [Ex. 10, 8-(3-Oxa-5-hexenyloxy)-3-(1H-tetrazol-5-yl)-coumarin] | 6.25 mg/kg | 1500 to 2000 mg/kg
